Source: ChEMBL document CHEMBL4351028, “Benzoyl indoles with metabolic stability as reversal agents for ABCG2-mediated multidrug resistance” (Eur J Med Chem, 2019)
Calls of active or inactive are those of the source. The calls are words filed in the database; no cut-off is given here.

Legend:
[1] = Cytotoxicity against HEK293 cells transfected with pcDNA3.1 assessed as inhibition of cell viability at 5 to 25 uM incubated for 2 by MTT assay relative to control; assay type: cell-based; settings: human, read-out: INH
ABCG2 = target: T1, ABCG2 (Homo sapiens, UniProt Q9UNQ0); assay: Competitive substrate activity at ABCG2 (unknown origin) expressed in High Five insect cell vesicle membrane assessed as stimulation of ATPase activity at 0.21 uM by PREDEASY ATPase assay relative to control; settings: High Five insect cell vesicle membranes expressing ABCG2
T1 sequence (Q9UNQ0 whole entry): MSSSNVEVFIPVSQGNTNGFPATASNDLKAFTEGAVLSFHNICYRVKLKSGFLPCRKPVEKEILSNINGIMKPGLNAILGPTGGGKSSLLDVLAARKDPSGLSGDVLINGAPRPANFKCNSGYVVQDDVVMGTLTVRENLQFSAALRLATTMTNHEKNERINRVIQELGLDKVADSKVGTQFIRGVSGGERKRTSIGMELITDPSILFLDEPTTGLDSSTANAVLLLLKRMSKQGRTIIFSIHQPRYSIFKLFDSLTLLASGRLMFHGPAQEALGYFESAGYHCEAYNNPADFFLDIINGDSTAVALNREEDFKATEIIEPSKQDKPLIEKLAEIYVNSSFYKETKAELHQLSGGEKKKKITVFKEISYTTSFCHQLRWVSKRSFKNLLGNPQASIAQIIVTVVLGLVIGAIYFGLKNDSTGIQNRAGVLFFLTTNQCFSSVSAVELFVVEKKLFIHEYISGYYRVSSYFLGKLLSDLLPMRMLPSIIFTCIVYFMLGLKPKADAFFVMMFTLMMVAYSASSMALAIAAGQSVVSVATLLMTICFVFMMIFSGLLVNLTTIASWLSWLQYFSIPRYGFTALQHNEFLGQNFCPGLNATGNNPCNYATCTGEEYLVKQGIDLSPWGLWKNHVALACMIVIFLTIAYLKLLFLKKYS

[2] = Cytotoxicity against human NCI-H460 cells assessed as inhibition of cell viability at 5 to 25 uM incubated for 2 hrs by MTT assay relative to control; assay type: cell-based; settings: read-out: INH
[3] = target: T2, Broad substrate specificity ATP-binding cassette transporter ABCG2 (Homo sapiens, UniProt Q9UNQ0); assay: (§1) Reversal of ABCG2-mediated multidrug resistance in human NCI-H460/MX20 cells assessed as potentiation of mitoxantrone-induced cytotoxicity by measuring inhibition of cell proliferation pretreated for 2 hrs followed by mitoxantrone addition and measured after 44 hrs by MTT assay; assay type: cell-based
T2 sequence (Q9UNQ0 whole entry): T1 sequence (Q9UNQ0 whole entry)

[4] = target: T2, Broad substrate specificity ATP-binding cassette transporter ABCG2; assay: Reversal of ABCG2-mediated multidrug resistance in human NCI-H460/MX20 cells assessed as potentiation of mitoxantrone-induced cytotoxicity at 10 to 25 uM pretreated with compound for 2 hrs followed by mitoxantrone challenge for 44 hrs by MTT assay; assay type: cell-based
Homo sapiens [5] = organism: Homo sapiens; assay: Effect on ABCG2 expression in human NCI-H460/MX20 cells at 25 uM incubated up to 72 hrs by Western blot analysis; assay type: functional, cell-based
[6] = target: T2, Broad substrate specificity ATP-binding cassette transporter ABCG2; assay: as §1, with “proliferation at 25 uM” for “proliferation”, “assay (reference value: 24 +/- 3%)” for “assay”; assay type: cell-based
[7] = Cytotoxicity against human S1-M1-80 cells assessed as inhibition of cell viability at 5 to 25 uM incubated for 2 hrs by MTT assay relative to control; assay type: cell-based; settings: read-out: INH
[8] = target: T2, Broad substrate specificity ATP-binding cassette transporter ABCG2; assay: Reversal of ABCG2-mediated multidrug resistance in human NCI-H460/MX20 cells assessed as potentiation of cisplatin-induced cytotoxicity at 25 uM pretreated for 2 hrs followed by cisplatin addition and measured after 44 hrs by MTT assay; assay type: cell-based
[9] = Cytotoxicity against human S1 cells assessed as inhibition of cell viability at 5 to 25 uM incubated for 2 hrs by MTT assay relative to control; assay type: cell-based; settings: read-out: INH
[10] = target: T2, Broad substrate specificity ATP-binding cassette transporter ABCG2; assay: Competitive substrate activity at ABCG2 (unknown origin) expressed in High Five insect cell vesicle membrane assessed as stimulation of ATPase activity up to 40 uM by PREDEASY ATPase assay relative to control
[11] = target: T2, Broad substrate specificity ATP-binding cassette transporter ABCG2; assay: Reversal of ABCG2 (unknown origin) expressed in HEK293 cells-mediated multidrug resistance assessed as potentiation of mitoxantrone-induced cytotoxicity at 10 to 25 uM pretreated for 2 hrs followed by mitoxantrone addition and measured after 44 hrs by MTT assay; assay type: cell-based; settings: hek293, 44 h
[12] = Cytotoxicity against human NCI-H460/MX20 cells assessed as inhibition of cell viability incubated for 2 hrs by MTT assay; assay type: cell-based; settings: NCI-H460/MX20, 2 h
NCI-H460 [13] = assay: Cytotoxicity against human NCI-H460 cells assessed as inhibition of cell viability incubated for 2 hrs by MTT assay; assay type: cell-based; settings: NCI-H460, 2 h, read-out: IC50
[14] = target: T2, Broad substrate specificity ATP-binding cassette transporter ABCG2; assay: Reversal of ABCG2-mediated multidrug resistance in human S1-M1-80 cells assessed as potentiation of doxorubicin-induced cytotoxicity at 25 uM pretreated with compound for 2 hrs followed by doxorubicin challenge for 44 hrs by MTT assay; assay type: cell-based
[15] = Metabolic stability in human liver microsomes assessed as compound remaining at 100 uM incubated for 1 hr by HPLC analysis; assay type: ADME, Microsome; settings: read-out: Stability
[16] = Cytotoxicity against HEK293 cells harbouring ABCG2-482-G2 mutant assessed as inhibition of cell viability at 5 to 25 uM incubated for 2 hrs by MTT assay relative to control; assay type: ADME, cell-based; settings: human, read-out: INH
[17] = target: T2, Broad substrate specificity ATP-binding cassette transporter ABCG2; assay: Inhibition of ABCG2-mediated mitoxantrone efflux in human NCI-H460/MX20 cells assessed as increase in accumulation of [3H]MX at 10 uM incubated for 2 hrs followed by [3H]MX addition and measured after 2 hrs by liquid scintillation counter; assay type: cell-based
[18] = target: T2, Broad substrate specificity ATP-binding cassette transporter ABCG2; assay: Inhibition of ABCG2-mediated mitoxantrone efflux in human NCI-H460/MX20 cells assessed as increase in accumulation of [3H]MX at 25 uM incubated for 2 hrs followed by [3H]MX addition further incubated for 2 hrs by liquid scintillation counter relative to control; assay type: cell-based
Homo sapiens [19] = organism: Homo sapiens; assay: Effect on ABCG2 internalization in human NCI-H460/MX20 cells at 25 uM incubated for 72 hrs by immunofluorescence analysis; assay type: functional, cell-based
HEK293 [20] = assay: Reversal of ABCG2 482-T7 mutant (unknown origin) expressed in HEK293 cells-mediated multidrug resistance assessed as potentiation of mitoxantrone-induced cytotoxicity at 10 to 25 uM pretreated for 2 hrs followed by mitoxantrone challenge and measured after 44 hrs by MTT assay; assay type: cell-based; settings: Homo sapiens
[21] = Cytotoxicity against human NCI-H460/MX20 cells assessed as inhibition of cell viability at 5 to 25 uM incubated for 2 hrs by MTT assay relative to control; assay type: cell-based; settings: read-out: INH
[22] = Cytotoxicity against HEK293 cells expressing wild type ABCG2-482-R2 assessed as inhibition of cell viability at 5 to 25 uM incubated for 2 hrs by MTT assay relative to control; assay type: ADME, cell-based; settings: human, read-out: INH
[23] = target: T2, Broad substrate specificity ATP-binding cassette transporter ABCG2; assay: Reversal of ABCG2-mediated multidrug resistance in human S1-M1-80 cells assessed as potentiation of mitoxantrone-induced cytotoxicity at 25 uM pretreated with compound for 2 hrs followed by mitoxantrone challenge for 44 hrs by MTT assay; assay type: cell-based
HEK293 [24] = assay: Reversal of ABCG2 482-G2 mutant (unknown oirigin) expressed in HEK293 cells-mediated multidrug resistance assessed as potentiation of mitoxantrone-induced cytotoxicity at 10 to 25 uM pretreated for 2 hrs followed by mitoxantrone addition and measured after 44 hrs by MTT assay; assay type: cell-based; settings: Homo sapiens
[25] = target: T2, Broad substrate specificity ATP-binding cassette transporter ABCG2; assay: Competitive substrate activity at ABCG2 (unknown origin) expressed in High Five insect cell vesicle membrane assessed as stimulation of ATPase activity by PREDEASY ATPase assay
[26] = Cytotoxicity against human NCI-H460/MX20 cells assessed as concentration that causes inhibition of cell viability by <=20% incubated for 24 hrs by MTT assay; assay type: cell-based
[27] = Cytotoxicity against HEK293 cells harbouring ABCG2-482-T7 mutant assessed as inhibition of cell viability at 5 to 25 uM incubated for 2 hrs by MTT assay relative to control; assay type: ADME, cell-based; settings: human, read-out: INH
NCI-H460 [28] = assay: Cytotoxicity against human NCI-H460 cells assessed as concentration that causes inhibition of cell viability by <=20% incubated for 24 hrs by MTT assay; assay type: cell-based; settings: nci-h460, 24 h

COc1ccc(C(=O)c2ccc3[nH]cc(C(=O)c4ccc(OC)cc4)c3c2OC)cc1
cytotoxicity at up to 25 µM [1]: < 20% | Emax at 0.21 µM (ABCG2): 50% | cytotoxicity at 2 h, up to 25 µM [2]: < 20% | inhibition (INH) [3]: Dose-dependent effect | Activity [4]: Active | Activity (Homo sapiens [5]): inactive | inhibition at 25 µM [6]: > 87% | cytotoxicity at 2 h, up to 25 µM [7]: < 20% | Activity [8]: Not Active | cytotoxicity at 2 h, up to 25 µM [9]: < 20% | fold change (FC) [10]: 3.01 | Activity [11]: Active | IC50 [12]: > 100 µM | IC50 (NCI-H460 [13]): > 100 µM | Activity [14]: Active | remaining at 1 h, 100 µM [15]: 56% | cytotoxicity at 2 h, up to 25 µM [16]: < 20% | Activity [17]: Active | fold change (FC) [18]: 3 | Activity (Homo sapiens [19]): inactive | Activity (HEK293 [20]): Active | cytotoxicity at 2 h, up to 25 µM [21]: < 20% | cytotoxicity at 2 h, up to 25 µM [22]: < 20% | Activity [23]: Active | Activity (HEK293 [24]): Active | Activity [25]: Dose-dependent effect | Activity [26]: 25 µM | cytotoxicity at 2 h, up to 25 µM [27]: < 20% | Activity (NCI-H460 [28]): 25 µM
